The values below come from patent US11795177B2, “Substituted quinoline analogs as aldehyde dehydrogenase 1A1 (ALDH1A1) inhibitors” (THE UNITED STATES OF AMERICA, AS REPRESENTED BY THE …, priority 2017, dated 2023).

Structures can show the parent of a compound that is named as a salt.

One assay concerns the target T1, ALDH1A1 enzyme (Homo sapiens, UniProt P00352).
T1 sequence (P00352 1-501): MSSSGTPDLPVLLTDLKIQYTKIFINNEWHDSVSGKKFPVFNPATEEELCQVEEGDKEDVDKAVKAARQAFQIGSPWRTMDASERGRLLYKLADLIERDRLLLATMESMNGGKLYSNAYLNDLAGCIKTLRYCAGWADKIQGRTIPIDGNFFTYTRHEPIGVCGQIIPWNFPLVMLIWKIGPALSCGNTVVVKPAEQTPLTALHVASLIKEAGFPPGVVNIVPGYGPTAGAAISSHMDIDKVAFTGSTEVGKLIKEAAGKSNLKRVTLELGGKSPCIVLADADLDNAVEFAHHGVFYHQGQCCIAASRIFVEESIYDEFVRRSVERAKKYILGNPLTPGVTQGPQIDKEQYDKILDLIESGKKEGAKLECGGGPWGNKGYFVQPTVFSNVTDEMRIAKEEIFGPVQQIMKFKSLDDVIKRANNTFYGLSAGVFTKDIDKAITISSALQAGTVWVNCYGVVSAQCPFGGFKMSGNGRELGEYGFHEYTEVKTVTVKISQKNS
Nature of the assay: ALDH1A1 enzymatic assay (in vitro). Format: biochemical. The conditions noted are these: ALDH1A1 enzyme 20 nM, NAD+ 1 mM, propionaldehyde 80 μM; read-out: ALDH1A1 IC50. As to the method:
Example 358. ALDH1A1 Enzymatic Assay (In Vitro Assay)
3 μL of ALDH1A1 enzyme (final concentration 20 nM) or assay buffer (100 mM HEPES pH 7.5 with 0.01% Tween 20) were dispensed into a 1,536-well solid-bottom black plate (Greiner Bio One, Monroe, N.C.) followed by pin-tool transfer (23 nL) of candidate inhibitors (final concentration range 968 pM to 57.2 μM) and control (Bay 11-7085, final concentration range 1.31 nM to 2.86 μM). Samples were incubated (RT, protected from light) for 15 minutes followed by a 1 μL substrate addition of NAD^+ and Propionaldehyde (final concentrations of 1 mM and 80 μM, respectively). Plates were centrifuged at 1,000 rpm for 15 seconds, then read in kinetic mode on a ViewLux High-throughput CCD imager (Perkin-Elmer) equipped with standard UV fluorescence optics (340 nm excitation, 450 nm emission) for 10 minutes. The change in fluorescence intensity over the 10-minute reaction period was normalized against no-inhibitor and no-enzyme controls and the resulting percent inhibition data were fitted for biological activity.

The next assay deals with MIA PaCa-2 cells. Kind of assay: MIA PaCa2 cell-based assay (1,536-well high-content imaging ALDEFLUOR assay). Set-up: species or system human. The conditions noted are these: Homo sapiens, 0.5 h, ALDEFLUOR BAAA substrate 500 nM, 30 minutes. Summed up:
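MIA PaCa-2 cells (1,000/well), plated overnight, given BAAA substrate (500 nM) plus Hoechst 33342 (0.5 nM), then compound (16-point, 1.4 nM–47.8 μM final; 0.5% DMSO). After 30 min at 37° C, ALDH activity imaged by high-content microscopy as BAA-retaining (FITC) cells versus Hoechst-stained nuclei.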

As a reminder, the IC50 is the point on the concentration scale where inhibition reaches its midpoint. For the compound `COc1ccc2ncc(C(=O)N3CCC(OC)CC3)c(N3CCC(OC)CC3)c2c1` [Example 4, (6-methoxy-4-(4-methoxypiperidin-1-yl)quinolin-3-yl)(4-methoxypiperidin-1-yl)methanone, TFA], the IC50 on ALDH1A1 enzyme is under 0.5 µM; with MIA PaCa-2 cells, 1 to 10 µM.
With `COc1ccc2ncc(C(=O)N3CCN(C(=O)C(C)C)CC3)c(N3CCC4(CC3)OCCO4)c2c1` [Example 5, 1-(4-(6-methoxy-4-(1,4-dioxa-8-azaspiro[4.5]decan-8-yl)quinoline-3-carbonyl)piperazin-1-yl)-2-methylpropan-1-one, TFA], the IC50 on ALDH1A1 enzyme is under 0.5 µM; in the assay with MIA PaCa-2 cells, over 10 µM.
As for `CCC(=O)N1CCN(C(=O)c2cnc3ccc(OC)cc3c2N2CCC3(CC2)OCCO3)CC1` [Example 6, 1-(4-(6-methoxy-4-(1,4-dioxa-8-azaspiro[4.5]decan-8-yl)quinoline-3-carbonyl)piperazin-1-yl)propan-1-one, TFA], the IC50 on ALDH1A1 enzyme is under 0.5 µM; in the assay on MIA PaCa-2 cells, 1 to 10 µM.
Consider `COc1ccc2ncc(C(=O)N3CCN(C(=O)c4cnn(C)c4)CC3)c(N3CCC4(CC3)OCCO4)c2c1` [Example 7, (6-methoxy-4-(1,4-dioxa-8-azaspiro[4.5]decan-8-yl)quinolin-3-yl)(4-(1-methyl-1H-pyrazole-4-carbonyl)piperazin-1-yl)methanone, TFA], for which the concentration for half-maximal inhibition (IC50) on ALDH1A1 enzyme was under 0.5 µM; in the assay on MIA PaCa-2 cells, over 10 µM.
As to `COc1ccc2ncc(C(=O)N3CCN(C(C)C)CC3)c(N3CCC4(CC3)OCCO4)c2c1` [Example 8, (4-isopropylpiperazin-1-yl)(6-methoxy-4-(1,4-dioxa-8-azaspiro[4.5]decan-8-yl)quinolin-3-yl)methanone, TFA], the IC50 on ALDH1A1 enzyme is 1 to 10 µM; in the assay on MIA PaCa-2 cells, over 10 µM.
Regarding `COc1ccc2ncc(C(=O)N3CCN(C4CCCC4)CC3)c(N3CCC4(CC3)OCCO4)c2c1` [Example 9, (4-cyclopentylpiperazin-1-yl)(6-methoxy-4-(1,4-dioxa-8-azaspiro[4.5]decan-8-yl)quinolin-3-yl)methanone, TFA], the IC50 at ALDH1A1 enzyme is 1 to 10 µM; with MIA PaCa-2 cells it was over 10 µM.
As for `COc1ccc2ncc(C(=O)N3CCC(c4ccccc4)CC3)c(N3CCC4(CC3)OCCO4)c2c1` [Example 10, (6-methoxy-4-(1,4-dioxa-8-azaspiro[4.5]decan-8-yl)quinolin-3-yl)(4-phenylpiperidin-1-yl)methanone, TFA], the IC50 on ALDH1A1 enzyme was under 0.5 µM; in the assay on MIA PaCa-2 cells, over 10 µM.
For the compound `COc1ccc2ncc(C(=O)N3CCC(N4CCCC4)CC3)c(N3CCC4(CC3)OCCO4)c2c1` [Example 11, (6-methoxy-4-(1,4-dioxa-8-azaspiro[4.5]decan-8-yl)quinolin-3-yl)(4-(pyrrolidin-1-yl)piperidin-1-yl)methanone, TFA], the IC50 on ALDH1A1 enzyme and in the assay with MIA PaCa-2 cells was over 10 µM in each case.
For `COc1ccc2ncc(C(=O)N3CCC(C(F)(F)F)CC3)c(N3CCC4(CC3)OCCO4)c2c1` [Example 12, (6-methoxy-4-(1,4-dioxa-8-azaspiro[4.5]decan-8-yl)quinolin-3-yl)(4-(trifluoromethyl)piperidin-1-yl)methanone, TFA], the figures for the IC50 at ALDH1A1 enzyme and in the assay with MIA PaCa-2 cells were under 0.5 µM and 1 to 10 µM, respectively.
As for `COc1ccc2ncc(C(=O)N3CCN(S(C)(=O)=O)CC3)c(N3CCC4(CC3)OCCO4)c2c1` [Example 13, (6-methoxy-4-(1,4-dioxa-8-azaspiro[4.5]decan-8-yl)quinolin-3-yl)(4-(methylsulfonyl)piperazin-1-yl)methanone, TFA], the values for the half-maximal inhibitory concentration (IC50) at ALDH1A1 enzyme and in the assay with MIA PaCa-2 cells were under 0.5 µM and 1 to 10 µM, respectively.
Consider `COc1ccc2ncc(C(=O)N3CCN(c4cccnc4)CC3)c(N3CCC4(CC3)OCCO4)c2c1` [Example 14, (6-methoxy-4-(1,4-dioxa-8-azaspiro[4.5]decan-8-yl)quinolin-3-yl)(4-(pyridin-3-yl)piperazin-1-yl)methanone, TFA], for which the figures for the IC50 on ALDH1A1 enzyme and with MIA PaCa-2 cells were under 0.5 µM and over 10 µM, respectively.
Regarding `COc1ccc2ncc(C(=O)N3CCN(c4ccncc4)CC3)c(N3CCC4(CC3)OCCO4)c2c1` [Example 15, (6-methoxy-4-(1,4-dioxa-8-azaspiro[4.5]decan-8-yl)quinolin-3-yl)(4-(pyridin-4-yl)piperazin-1-yl)methanone, TFA], the IC50 was 1 to 10 µM at ALDH1A1 enzyme and over 10 µM in the assay on MIA PaCa-2 cells.
Consider `COc1ccc2ncc(C(=O)N3CCN(C(=O)C4CC4)CC3)c(N3CCC4(CCCC4)CC3)c2c1` [Example 17, (4-(cyclopropanecarbonyl)piperazin-1-yl)(6-methoxy-4-(8-azaspiro[4.5]decan-8-yl)quinolin-3-yl)methanone, TFA], for which the IC50 at ALDH1A1 enzyme was under 0.5 µM; in the assay with MIA PaCa-2 cells, 1 to 10 µM.
Take `COc1ccc2ncc(C(=O)N3CCN(C(=O)C4CC4)CC3)c(N3CCC(C)(C)CC3)c2c1` [Example 18, (4-(cyclopropanecarbonyl)piperazin-1-yl)(4-(4,4-dimethylpiperidin-1-yl)-6-methoxyquinolin-3-yl)methanone, TFA]: the IC50 on ALDH1A1 enzyme was under 0.5 µM; with MIA PaCa-2 cells, 1 to 10 µM.
In the case of `COc1ccc2ncc(C(=O)N3CCN(C(=O)C4CC4)CC3)c(N3CCN(S(C)(=O)=O)CC3)c2c1` [Example 19, (4-(cyclopropanecarbonyl)piperazin-1-yl)(6-methoxy-4-(4-(methylsulfonyl)piperazin-1-yl)quinolin-3-yl)methanone, TFA], the IC50 on ALDH1A1 enzyme and with MIA PaCa-2 cells was 1 to 10 µM throughout.
As to `COc1ccc2ncc(C(=O)N3CCN(C(=O)C4CC4)CC3)c(N3CCN(C(C)=O)CC3)c2c1` [Example 23, 1-(4-(3-(4-(cyclopropanecarbonyl)piperazine-1-carbonyl)-6-methoxyquinolin-4-yl)piperazin-1-yl)ethanone], the IC50 on ALDH1A1 enzyme and in the assay with MIA PaCa-2 cells was over 10 µM throughout.
As for `COc1ccc2ncc(C(=O)N3CCN(C(=O)C4CC4)CC3)c(N3CCC4(CCCO4)CC3)c2c1` [Example 24, (4-(cyclopropanecarbonyl)piperazin-1-yl)(6-methoxy-4-(1-oxa-8-azaspiro[4.5]decan-8-yl)quinolin-3-yl)methanone], the IC50 was under 0.5 µM on ALDH1A1 enzyme and over 10 µM in the assay on MIA PaCa-2 cells.
For the compound `COc1ccc2ncc(C(=O)N3CCN(C(=O)C4CC4)CC3)c(N3CCC(C#N)CC3)c2c1` [Example 25, 1-(3-(4-(cyclopropanecarbonyl)piperazine-1-carbonyl)-6-methoxyquinolin-4-yl)piperidine-4-carbonitrile], the IC50 on ALDH1A1 enzyme and with MIA PaCa-2 cells was over 10 µM each time.
As for `COc1ccc2ncc(C(=O)N3CCN(C(=O)C4CC4)CC3)c(N3CCC(C)(OC)CC3)c2c1` [Example 26, (4-(cyclopropanecarbonyl)piperazin-1-yl)(6-methoxy-4-(4-methoxy-4-methylpiperidin-1-yl)quinolin-3-yl)methanone], the IC50 on ALDH1A1 enzyme is under 0.5 µM; in the assay on MIA PaCa-2 cells, over 10 µM.
Regarding `COc1ccc2ncc(C(=O)N3CCN(C(=O)C4CC4)CC3)c(N3CCC(C)(C#N)CC3)c2c1` [Example 27, 1-(3-(4-(cyclopropanecarbonyl)piperazine-1-carbonyl)-6-methoxyquinolin-4-yl)-4-methylpiperidine-4-carbonitrile], the IC50 was under 0.5 µM on ALDH1A1 enzyme and 1 to 10 µM with MIA PaCa-2 cells.
With `COc1ccc2ncc(C(=O)N3CCN(C(=O)C4CC4)CC3)c(N3CCC(C(F)(F)F)CC3)c2c1` [Example 28, (4-(cyclopropanecarbonyl)piperazin-1-yl)(6-methoxy-4-(4-(trifluoromethyl)piperidin-1-yl)quinolin-3-yl)methanone], the IC50 on ALDH1A1 enzyme was 1 to 10 µM; with MIA PaCa-2 cells it was over 10 µM.
As for `COc1ccc2ncc(C(=O)N3CCN(C(=O)C4CC4)CC3)c(N3CCS(=O)(=O)CC3)c2c1` [Example 29, (4-(cyclopropanecarbonyl)piperazin-1-yl)(4-(1,1-dioxidothiomorpholino)-6-methoxyquinolin-3-yl)methanone], the IC50 on ALDH1A1 enzyme and in the assay on MIA PaCa-2 cells was over 10 µM in each case.
As for `COc1ccc2ncc(C(=O)N3CCC(F)(F)CC3)c(N3CCC4(CC3)OCCO4)c2c1` [Example 32, (4,4-difluoropiperidin-1-yl)(6-methoxy-4-(1,4-dioxa-8-azaspiro[4.5]decan-8-yl)quinolin-3-yl)methanone], the IC50 on ALDH1A1 enzyme is 0.5 to 1 µM; in the assay on MIA PaCa-2 cells, over 10 µM.
